Blank lines part the entries; values can stand above or below the molecule they belong to.
What was measured:
p27-KID [1] = biological target: T1, p27-KID (Homo sapiens, UniProt P46527); test: NMR 2D 1H-15N in-phase HSQC titration, binding affinity for p27:small molecule interactions; settings: sixteen-point titration, 100 μM 15N-p27-KID, inhibitor 0-3 mM
T1 construct: 6xHis (N, cleaved yes); made in house; host or cells: E. coli (pET28a)
Description: 1D and 2D NMR analysis of these molecules led to the identification of 15 additional p27-D2-binding compounds (six with Group 1-like binding features and nine with Group 2-like features; Suppl. Fig. 3b and Suppl. Table 1b).
Sixteen point titrations of representative fragment hits from Group 1 and Group 2 (SJ572710 and SJ572403, respectively) into ^15N-p27-KID (100 μM) were recorded using an adopted “in-phase” 2D ^1H-^15N HISQC with proton decoupling during ^15N chemical shift labeling achieved with a WALTZ16 composite pulse with an amplitude of 7.1 kHz[54][55]. All experiments were collected at a Bruker Avance 800 MHz spectrometer equipped with TCI cryogenic gradient probe. The following molar ratios of ^15N-p27-KID (100 μM) to inhibitor were used: 1:0, 1:0.1, 1:1.5, 1:3, 1:4.5, 1:6, 1:7.5, 1:9, 1:10.5, 1:12, 1:15, 1:18, 1:21, 1:24, 1:27 and 1:30. Each spectrum was recorded with 256 (t1,max = 31.0 ms) and 1024 (t2,max = 106.5 ms) complex points in the ^15N and ^1H dimensions, respectively, with eight transients collected per point. The spectral resolution of the ^1H and ^15N dimensions was 2.4 and 1.7 Hz, respectively. […] The data was processed using the NMRPipe package[56] and analyzed using in-house scripts written in Python using the Scipy computing libraries and Mathematica (Wolfram Research). […]

p27-KID [2] = biological target: T1, p27-KID; test: NMR fragment screening and 2D 1H-15N HSQC chemical shift perturbation mapping; assay type: binding; set-up: key to Binding Group (site of chemical shift perturbations in p27-KID): Molecules in Group 1 bound to a localized region, F87YY89; molecules in Group 2 bound to this region as well as two others containing two W residues (W60 and W76); settings: 100 μM 15N-p27-KID; for chemical shift perturbations in 2D HSQC spectra of p27-KID: titrated to 30-fold molar excess (3 mM)
Excerpt: We used one-dimensional (1D) ^1H WaterLOGSY[35] and STD[36] […] Fragment molecules were selected from either a commercial library (1,100 compounds from the Ro3 collection, Maybridge/Thermo Fisher Scientific) or an in-house library of 1,222 compounds based on the “Rule of Three”[40] and other criteria (see Methods). […] Binding sites for these compounds were identified by titration into ^15N-p27-KID and analysis of two-dimensional (2D) ^1H-^15N HSQC spectra. […] We termed these molecules Groups 1 and 2, respectively (Fig. 1b,c); representative ^1H CSP histograms are shown in Fig. 1d,e, and ^15N CSPs are presented in Suppl. Fig. 2. Data for all other small molecules are shown in Suppl. Fig. 3.
Screening and validation NMR experiments were performed at 298 K (25 °C) using either a Varian Inova 600 MHz spectrometer equipped with a triple resonance (HCN) room temperature gradient probe or a Bruker Avance 600 MHz spectrometer equipped with TCI cryogenic gradient probe and a SampleJet sample changer. Fragment molecules were initially analyzed as pools of five molecules dissolved at 10 mM each in DMSO-D6. […] For initial fragment screening experiments, one-dimensional (1D) ^1H- and WaterLOGSY[35] NMR spectra were recorded for compound pools without and with protein. […] DMSO-D6 was added to maintain a constant concentration (2% vol/vol). […] Tryptophan and tyrosine, respectively, were titrated into ^15N-p27-KID (100 μM) up to 3 mM. Three-dimensional (3D) backbone triple-resonance experiments to establish resonance assignments for the p27 constructs were performed using the Bruker Avance 600 MHz spectrometer. […] Fig. 12b,c and d,e, respectively. 2D ^1H-^15N TROSY-HSQC NMR experiments with ^2H/^13C/^15N-p27-D2/Cdk2/cyclin A and SJ403 have been recorded at 308 K (35 °C). 2D ^1H-^15N HSQC experiments of representative fragment hits (1 mM of SJ319843, group 1 and SJ403, group 2, respectively) with ^15N-p21-KID (20 μM) were recorded at 298 K using a Bruker Avance 600 MHz spectrometer. NMR spectra were processed using Bruker Topspin software and analyzed using computer-aided resonance assignment (CARA) software.
Chemical shift perturbations are generally quantified as combined ^1H and ^15N chemical shift values. […] Thus, the use of a combined chemical shift values would mask the effects of compound binding. […] Thus, the assessment of statistical significance was based upon whether a particular CSP value was larger than, i) the experimental spectral resolution in the given dimension (^1H or ^15N) and ii) the quantity, Δδave + 2σ, for that dimension.

Cdk2/cyclin A [3] = biological target: T2, Cdk2/cyclin A (Homo sapiens, UniProt P24941); test: Fluorescence anisotropy analysis of Cdk2/cyclin A binding to p27-D2-FL; settings: Alexa Fluor 488 labeled p27-D2
T2 construct: Full length human Cdk2, active Cdk2 (phosphorylated at threonine 160); truncated human cyclin A (residues 173–432); made in house
Description: Figure 4 Fluorescence anisotropy analysis of displacement of p27-D2-FL from Cdk2/cyclin A by SJ403. (a) Fluorescence anisotropy analysis of Cdk2/cyclin A binding to p27-D2-FL. The starting condition (20 nM p27-D2-FL, 300 nM Cdk2/cyclin A) for assessing the effect of fragment hit SJ403 on p27 function is represented as the red circle on the binding isotherm. (b) Titration of SJ403 (0–3 mM) caused the displacement of p27-D2 from Cdk2/cyclin A, resulting in a decrease in fluorescence anisotropy values. Experiments were performed in triplicate and average values and the standard deviations of the means are shown.
The p27-D2-C99S-R93C mutant was conjugated with Alexa Fluor488-C5-Maleimide (Life Technologies, p27-D2-FL) in buffer containing 20 mM Na phosphate, pH7.3, 20 mM NaCl according to the manufacturer’s protocol. The conjugated protein was further purified by reverse-phase high performance liquid chromatography (HPLC) using a C4 column (Vydac) and 0.1% trifluoroacetic acid-containing water/acetonitrile solvent system. […] Fluorescence anisotropy measurements were performed at 25 °C on a Horiba Fluorolog 3 spectrofluorometer. […] All samples have been incubated overnight in the dark at 4 °C prior to fluorescence measurements. Fluorescence anisotropy binding data was analyzed using KaleidaGraph. […]

Cdk2/cyclin A [4] = biological target: T2, Cdk2/cyclin A; test: Cdk2/cyclin A kinase activity assay (Histone H1 substrate); assay type: biochemical
Description: Cdk2/Cyclin A (200 pM) was mixed with Histone H1 (15 μM; EMD Millipore), p27-D2 (200 nM) and varied amounts of lyophilized SJ403 and incubated overnight at 4 °C. The effect of the SJ403 compound on Cdk2 activity was determined by performing similar experiments in the absence of p27-D2. Subsequently, ATP (50 μM total concentration, of which 6 μCi γ ^32P-ATP (PerkinElmer, Inc)) was added to each reaction and further incubated for 35 minutes at 30 °C. […] The sample buffer contained 20 mM HEPES pH 7.3, 25 mM sodium β-glycerolphosphate, 15 mM MgCl2, 16 mM EGTA, 0.5 mM Na3VO4 and 10 mM DTT. The reactions were quenched by addition of SDS-gel loading buffer (5 μL) and then analyzed by SDS-PAGE (10 μL). The gels were dried at 70 °C under vacuum and a phosphoimager (GE Healthcare, Piscataway, NJ) was used to quantify the ^32P-Histone H1 bands. IC50 values were determined by curve fitting using KaleidaGraph software. Experiments were performed in triplicate and mean IC50 and standard deviations of the mean values are reported.

T1 sequence (P46527 22-105): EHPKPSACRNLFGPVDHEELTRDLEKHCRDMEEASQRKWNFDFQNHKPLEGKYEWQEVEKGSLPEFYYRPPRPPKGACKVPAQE

Kd (p27-KID [1]): 4800 ± 1300 µM
Binding Group (site of chemical shift perturbations in p27-KID) (p27-KID [2]; 2D 1H-15N HSQC): Group 1
Molecule: O=c1oc2cc(OCCO)ccc2c2c1CCCC2 [SJ710]

Molecule: N[C@@H](Cc1ccc(O)cc1)C(=O)O [tyrosine, reference compound]
chemical shift perturbations in 2D HSQC spectra of p27-KID (p27-KID [2]): neither aromatic amino acid cause chemical shift perturbations

Kd (Cdk2/cyclin A [3]): 0.073 ± 0.008 µM
IC50 (Cdk2/cyclin A [4]; 200 pM Cdk2/cyclin A, Histone H1 substrate, read-out: IC50, inhibition of Cdk2/cyclin A): 0.152 ± 0.039 µM
Molecule: p27-D2: D2 sub-domain of p27, residues 58-105 of human p27 (RKWNFDFQNHKPLEGKYEWQEVEKGSLPEFYYRPPRPPKGACKVPAQE; UniProt P46527 58-105, looked up, fragment)
Cdk2 kinase activity maintained (of full kinase activity) (Cdk2/cyclin A [4]; 200 nM p27-D2, 200 pM Cdk2/cyclin A, before SJ403): ~ 13%

Molecule: N[C@@H](Cc1c[nH]c2ccccc12)C(=O)O [tryptophan, reference compound]
chemical shift perturbations in 2D HSQC spectra of p27-KID (p27-KID [2]): neither aromatic amino acid cause chemical shift perturbations
